Test results reported in PubChem BioAssay AID504702 (Southern Research Specialized Biocontainment Screening …, 2011).
pIC50: −log10 of the molar value. “And” between values parts separate entries of the source, which are not always exact repeats. Identical values can stand only once. The source made the active and inactive calls. The rule behind the calls is not given here.

Columns and labels:
[1] = M. tuberculosis growth inhibition with meropenem, dose response, H37Rv, set 2 (AID 504702);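 note: growth read by Alamar Blue after 7 days plus overnight incubation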; settings: M. tuberculosis H37Rv with meropenem, growth inhibition
[2] = system: M. tuberculosis H37Rv with meropenem, growth inhibition; assay: as above; settings: for IC90: measured here: IC90 growth with meropenem

SMILES: Cc1ccccc1OCC(=O)Nc1ncn[nH]1
- growth inhibition ([1]; at 25 µM (top of the series)): 0.97% (inactive)

SMILES: N/C(=N\c1nc2ccccc2o1)NC(=O)COc1ccc2ccccc2c1
- growth inhibition ([1]; at 25 µM (top of the series)): -2.85% (inactive)

SMILES: CCOc1ccc2c(c1)c(CC)c(C)n2-c1ccccc1
- pIC50 [2]: 5.35
- IC90 [2]: > 25 µM

SMILES: COc1ccc2nc(NC(=O)c3oc4ccccc4c3C)sc2c1
- growth inhibition ([1]; at 25 µM (top of the series)): -4.34% (inactive)

SMILES: Cc1cc(C)c(OCC(=O)Nc2nc3ccccc3s2)c(Cl)c1
- growth inhibition ([1]; at 25 µM (top of the series)): -6.55% (inactive)

SMILES: CCOc1ccc2nc(NC(=O)c3cnccn3)sc2c1
- growth inhibition ([1]; at 18.8 µM (top of the series)): -0.94% (inactive)
- growth inhibition ([1]; at 25 µM (top of the series)): 20.9% (inactive)

SMILES: COC(=O)c1c(C)[nH]c2ccccc12
- growth inhibition ([1]; at 25 µM (top of the series)): -4.94% (inactive)

SMILES: COc1cccc(NC(=S)Nc2cc(C)cc(C)n2)c1
- pIC50 [2]: 5.14
- IC90 [2]: > 25 µM

SMILES: CCC(=O)N/C(N)=N/c1nc2ccccc2o1
- growth inhibition ([1]; at 25 µM (top of the series)): -1.89% (inactive)

SMILES: CCOc1ccc2[nH]c(C)cc2c1
- growth inhibition ([1]; at 25 µM (top of the series)): -0.67% (inactive)

SMILES: O=C(Nc1nc2ccccc2[nH]1)c1cc2cc(Br)ccc2o1
- growth inhibition ([1]; at 25 µM (top of the series)): -2.41% (inactive)

SMILES: Cc1cc2cc(Cl)ccc2[nH]1
- growth inhibition ([1]; at 25 µM (top of the series)): 0.31% (inactive)

SMILES: CC(Oc1ccc(Cl)cc1)C(=O)Nc1nc2ccccc2s1 (configuration not stated)
- growth inhibition ([1]; at 25 µM (top of the series)): -2.09% (inactive)

SMILES: O=C(COc1ccc(Cl)cc1)Nc1nc2ccc(F)cc2s1
- growth inhibition ([1]; at 25 µM (top of the series)): -1.17% (inactive)

SMILES: Cc1ccc(OCC(=O)Nc2cccc3ccccc23)c(C)c1
- pIC50 [2]: 4.69
- IC90 [2]: > 25 µM

SMILES: CN(NC(=O)c1c(Cl)cccc1Cl)c1cccc(Cl)n1
- pIC50 [2]: 4.81
- IC90 [2]: > 25 µM

SMILES: O=C(Nc1ccccc1)Nc1csc2ccccc12
- pIC50 [2]: 6.31 and 6.70
- IC90 [2]: > 25 µM

SMILES: O=C(COC(=O)C1CC1)c1c[nH]c2ccccc12
- pIC50 [2]: 6.60 and 6.19
- IC90 [2]: > 25 µM

SMILES: Cc1ccc(OCC(=O)Nc2nc3ccc(F)cc3s2)cc1
- growth inhibition ([1]; at 25 µM (top of the series)): -0.17% (inactive)

SMILES: Cc1ccc(OCC(=O)Nc2cccc3ncccc23)c(C)c1
- growth inhibition ([1]; at 25 µM (top of the series)): 1.76% (inactive)

SMILES: COC(=O)c1c(C)[nH]c2ccc(Cl)cc12
- growth inhibition ([1]; at 25 µM (top of the series)): -8.83% (inactive)

SMILES: CC(=O)c1c(C)n(-c2ccccc2C)c2ccc(O)cc12
- growth inhibition ([1]; at 25 µM (top of the series)): -1.1% (inactive)

SMILES: O=C(COc1ccccc1)Nc1nc2ccccc2s1
- growth inhibition ([1]; at 25 µM (top of the series)): -1.01% (inactive)

SMILES: Cc1ccc(OCC(=O)Nc2ccc(Cl)cc2)c(C)c1
- growth inhibition ([1]; at 25 µM (top of the series)): -3.91% (inactive)

SMILES: COc1ccc2nc(NC(=O)COc3ccccc3C(C)C)sc2c1
- growth inhibition ([1]; at 25 µM (top of the series)): -2.44% (inactive)

SMILES: Cc1ccc(C(C)C)c(OCC(=O)Nc2nc3ccccc3s2)c1
- growth inhibition ([1]; at 25 µM (top of the series)): -4.96% (inactive)

SMILES: CC(=O)Nc1ccc2nc(NC(=O)COc3ccccc3)sc2c1
- growth inhibition ([1]; at 25 µM (top of the series)): -0.49% (inactive)

SMILES: O=C(CCS(=O)(=O)c1ccc(F)cc1)Nc1nnc(-c2cccs2)o1
- pIC50 [2]: 4.65
- IC90 [2]: > 25 µM

SMILES: Cc1cc2cc(F)ccc2[nH]1
- growth inhibition ([1]; at 25 µM (top of the series)): 1.92% (inactive)

SMILES: c1ccc(Nc2ncnc3c2oc2ccccc23)cc1
- pIC50 [2]: 5.28
- IC90 [2]: > 25 µM

SMILES: CCOc1ccc2[nH]ccc2c1
- growth inhibition ([1]; at 25 µM (top of the series)): 2.77% (inactive)

SMILES: CC(=O)c1c(C)n(-c2ccccc2)c2ccc(OS(=O)(=O)C(F)(F)F)cc12
- IC90 [2]: > 25 µM

SMILES: Oc1ccc2[nH]ccc2c1
- growth inhibition ([1]; at 25 µM (top of the series)): 3.81% (inactive)

SMILES: COc1ccc2c(c1)c(C(C)=O)c(C)n2-c1ccccc1
- pIC50 [2]: 6.28 and 5.89
- IC90 [2]: > 18.8 µM

SMILES: Cc1c(OCc2ccc(C(=O)O)cc2)ccc2c(-c3ccccc3)cc(=O)oc12
- pIC50 [2]: 5.48 and 5.40
- IC90 [2]: > 25 µM

SMILES: CCOc1ccc2c(c1)c(C(C)=O)c(C)n2-c1ccccc1Cl
- pIC50 [2]: 4.87
- IC90 [2]: > 25 µM

SMILES: CCCOc1ccc2c(c1)c(C(C)=O)c(C)n2-c1ccccc1
- growth inhibition ([1]; at 25 µM (top of the series)): 20.4% (inactive)

SMILES: O=C(OC(C(=O)Nc1ccc(Cl)cc1C(F)(F)F)c1ccccc1)C1=COCCO1 (configuration not stated)
- pIC50 [2]: 5.50
- IC90 [2]: > 25 µM

SMILES: CCOC(=O)COc1nc(-c2ccc(Cl)cc2)cc(-c2ccco2)c1C#N
- pIC50 [2]: 5.17 and 5.39
- IC90 [2]: > 25 µM

SMILES: CCOc1ccc2c(c1)c(C(C)=O)c(C)n2-c1ccccc1
- pIC50 [2]: 6.18 and 6.28
- IC90 [2]: > 18.8 µM and 2.79 µM

SMILES: CCOc1ccc2nc(NC(=O)COc3ccc(Cl)c(C)c3)sc2c1
- growth inhibition ([1]; at 25 µM (top of the series)): -5.37% (inactive)

SMILES: N/C(=N\c1nc2ccccc2o1)NC(=O)c1ccc(F)cc1
- pIC50 [2]: 5.02
- IC90 [2]: > 25 µM

SMILES: Cc1ccc2oc(/N=C(\N)NC(=O)c3ccccc3)nc2c1
- growth inhibition ([1]; at 25 µM (top of the series)): 5.09% (inactive)

SMILES: CC(=O)c1c(C)n(-c2ccccc2)c2ccc(O)cc12
- pIC50 [2]: 4.70
- IC90 [2]: > 25 µM

SMILES: Cc1cccc(C)c1OCC(=O)Nc1nc2ccc(Cl)cc2s1
- growth inhibition ([1]; at 25 µM (top of the series)): -2.26% (inactive)

SMILES: COC(=O)c1sc(-c2ccc(C(C)(C)C)cc2)cc1NC(=O)CCC(=O)O
- pIC50 [2]: 5.46 and 5.14
- IC90 [2]: > 25 µM

SMILES: O=C(Nc1nc2ccccc2[nH]1)c1ccc(Cl)c(Cl)c1
- pIC50 [2]: 6.09
- IC90 [2]: > 25 µM

SMILES: CCOc1ccc2nc(NC(=O)COc3ccccc3)sc2c1
- growth inhibition ([1]; at 25 µM (top of the series)): -8.57% (inactive)

SMILES: COc1ccc2nc(NC(=O)COc3ccc(Cl)cc3)sc2c1
- growth inhibition ([1]; at 25 µM (top of the series)): 0.35% (inactive)

SMILES: Cc1cccc(C)c1OCC(=O)Nc1nc2ccccc2s1
- growth inhibition ([1]; at 25 µM (top of the series)): -9.19% (inactive)

SMILES: Cc1cc(C)c(OCC(=O)Nc2nc3ccc(C)cc3s2)c(C)c1
- growth inhibition ([1]; at 25 µM (top of the series)): -0.38% (inactive)

SMILES: CC(=O)c1c(C)n(-c2ccc(C)cc2)c2ccc(O)cc12
- growth inhibition ([1]; at 25 µM (top of the series)): -1.38% (inactive)

SMILES: CCOc1ccc2nc(NC(=O)COc3ccc(OC)cc3)sc2c1
- growth inhibition ([1]; at 25 µM (top of the series)): -8.22% (inactive)
